Test [1] has as its target His-Brd4(44-477) (Homo sapiens (Human), UniProt O60885). As to the kind of experiment: TR-FRET in-vitro binding assay for BRD4. The following applies: biochemical. A digest of the protocol: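 His-tagged BRD2(60-472), BRD3(20-477) or BRD4(44-477), 45 nM in dispensing solution, with 60 nM tetra-acetylated histone H4 peptide (AcK5/8/12/16) in dispensing solution; HEPES pH 7.5, 50 mM NaCl, 0.1% BSA, 30 °C, 35 min. Eu-anti-His6 antibody plus streptavidin-APC added for TR-FRET read-out; 8-point compound dilutions.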
On the technique in general: Time-resolved FRET reads energy transfer from a long-lived donor to a nearby acceptor.

Test [2] has as its target His-CREBBP (1081-1197) bromodomain (Homo sapiens (Human), UniProt Q92793). As to the kind of experiment: AlphaScreen in-vitro binding assay for CREBBP. The conditions noted are these: biochemical. A digest of the protocol:
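Ni-chelate acceptor and streptavidin donor beads (45 µg/mL each, in 50 mM HEPES pH 7.5, 150 mM NaCl, 0.02% BSA) were then added for 60 min at room temperature. IC50 came from 8-point non-linear regression.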
Background: Alpha assays give light when donor and acceptor beads are brought close together.

Test [3] relates to THP-1 cells. As to the kind of experiment: Cell growth inhibition assay (CellTiter-Glo), THP-1. The following applies: Homo sapiens, read-out: THP-1 TGI. It is filed as cell-based. In a few lines:
(§1)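 CTG luminescence (cellular ATP) after compound treatment; values background- and day 0-corrected, vehicle (0.1% DMSO) = 100%, medium only = −100%. Dose range: 3-fold dilutions from 10 μM. IC50/TGI by 4-parameter fit.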

In test [4] the test system is K-562 cells. As to the kind of experiment: Cell growth inhibition assay (CellTiter-Glo), K-562. It is filed as cell-based, human. The conditions noted are these: Homo sapiens, K562, read-out: K-562 TGI. In a few lines:
as §1

Our source for the IC50 and IC (total growth inhibition) values is patent US8975417B2, “Pyrazolopyrrolidine derivatives and their use in the treatment of disease” (Novartis AG, priority 2013, dated 2015).

One may read the IC50 as the concentration at which inhibition is half-maximal. A higher IC50 goes with lower potency.

His-CREBBP (1081-1197) bromodomain, sequence (Q92793 1081-1197): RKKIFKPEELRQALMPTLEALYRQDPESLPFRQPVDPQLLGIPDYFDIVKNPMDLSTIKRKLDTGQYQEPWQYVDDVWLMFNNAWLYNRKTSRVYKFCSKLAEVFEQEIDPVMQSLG

Consider `Cc1cc(N2C(=O)c3c(c(CO)nn3C3CC3)C2c2ccc(Cl)cc2)cn2c(C)nnc12` (stereo not drawn) [Example 131, 4-(4-chlorophenyl)-1-cyclopropyl-5-(3,8-dimethyl-[1,2,4]triazolo[4,3-a]pyridin-6-yl)-3-(hydroxymethyl)-4,5-dihydropyrrolo[3,4-c]pyrazol-6(1H)-one], for which the values for the IC50 in test [1] and in test [2] were 36 nM and 30000 nM, respectively. Besides, the IC (total growth inhibition) in test [3] is 0.119 µM; in test [4], over 10 µM.
Turning to `Cc1nn(C2COC2)c2c1C(c1ccc(Cl)cc1)N(c1cc(C)c(=O)n(C)c1)C2=O` (stereo not drawn) [Example 135, 4-(4-chlorophenyl)-5-(1,5-dimethyl-6-oxo-1,6-dihydropyridin-3-yl)-3-methyl-1-(oxetan-3-yl)-4,5-dihydropyrrolo[3,4-c]pyrazol-6(1H)-one], the IC50 was 140 nM in test [1] and over 37000 nM in test [2]. Besides, the IC (total growth inhibition) is 0.2 µM in test [3] and over 10 µM in test [4].
Regarding `Cc1cc(N2C(=O)c3nn(C4COC4)c(C)c3C2c2ccc(Cl)cc2)cn2c(C)nnc12` (stereo not drawn) [Example 136, 4-(4-chlorophenyl)-5-(3,8-dimethyl-[1,2,4]triazolo[4,3-a]pyridin-6-yl)-3-methyl-2-(oxetan-3-yl)-4,5-dihydropyrrolo[3,4-c]pyrazol-6(2H)-one], the IC50 in test [1] amounted to 110 nM; in test [2] it was 4300 nM. Further, the IC (total growth inhibition) in test [3] is 0.186 µM; in test [4], over 10 µM.
For `Cc1nn(C2COC2)c2c1C(c1ccc(Cl)cc1)N(c1cc(C)c3nnc(C)n3c1)C2=O` (stereo not drawn) [Example 137, 4-(4-chlorophenyl)-5-(3,8-dimethyl-[1,2,4]triazolo[4,3-a]pyridin-6-yl)-3-methyl-1-(oxetan-3-yl)-4,5-dihydropyrrolo[3,4-c]pyrazol-6(1H)-one] the same measures were 80 nM, over 37000 nM, 0.116 µM and over 10 µM.
In the case of `Cc1nn(C2CN(C)C2)c2c1C(c1ccc(Cl)cc1)N(c1cc(C)c(=O)n(C)c1)C2=O` (stereo not drawn) [Example 140, 4-(4-chlorophenyl)-5-(1,5-dimethyl-6-oxo-1,6-dihydropyridin-3-yl)-3-methyl-1-(1-methylazetidin-3-yl)-4,5-dihydropyrrolo[3,4-c]pyrazol-6(1H)-one], the IC50 in test [1] turned out to be 320 nM; in test [2], 15000 nM. Besides, the IC (total growth inhibition) in test [3] was 0.925 µM; in test [4] it was over 10 µM.
For `Cc1cc(N2C(=O)c3nn(C(=O)N(C)C)c(C)c3C2c2ccc(Cl)cc2)cn(C)c1=O` (stereo not drawn) [Example 141, 4-(4-chlorophenyl)-5-(1,5-dimethyl-6-oxo-1,6-dihydropyridin-3-yl)-N,N,3-trimethyl-6-oxo-5,6-dihydropyrrolo[3,4-c]pyrazole-2(4H)-carboxamide] the same measures were 170 nM, 1500 nM, 0.527 µM and over 10 µM.
For `Cc1nn(C(=O)N(C)C)c2c1C(c1ccc(Cl)cc1)N(c1cc(C)c(=O)n(C)c1)C2=O` (stereo not drawn) [Example 142, 4-(4-chlorophenyl)-5-(1,5-dimethyl-6-oxo-1,6-dihydropyridin-3-yl)-N,N,3-trimethyl-6-oxo-5,6-dihydropyrrolo[3,4-c]pyrazole-1(4H)-carboxamide] the same measures were 190 nM, 4600 nM, 0.448 µM and over 10 µM.
For `CNC(=O)n1nc(C)c2c1C(=O)N(c1cc(C)c(=O)n(C)c1)C2c1ccc(Cl)cc1` (stereo not drawn) [Example 143, 4-(4-chlorophenyl)-5-(1,5-dimethyl-6-oxo-1,6-dihydropyridin-3-yl)-N,3-dimethyl-6-oxo-5,6-dihydropyrrolo[3,4-c]pyrazole-1(4H)-carboxamide] the same measures were 300 nM, over 37000 nM, 0.621 µM and over 10 µM.
As to `CNC(=O)n1nc(C)c2c1C(=O)N(c1cc(C)c3nnc(C)n3c1)C2c1ccc(Cl)cc1` (stereo not drawn) [Example 145, 4-(4-chlorophenyl)-5-(3,8-dimethyl-[1,2,4]triazolo[4,3-a]pyridin-6-yl)-N,3-dimethyl-6-oxo-5,6-dihydropyrrolo[3,4-c]pyrazole-1(4H)-carboxamide], the IC50 in test [1] is 140 nM; in test [2] it was over 37000 nM. Further, the IC (total growth inhibition) is 0.335 µM in test [3] and over 10 µM in test [4].
Consider `CCc1c2c(nn1C(=O)N(C)C)C(=O)N(c1cc(C)c(=O)n(C)c1)C2c1ccc(Cl)cc1` (stereo not drawn) [Example 148, 4-(4-chlorophenyl)-5-(1,5-dimethyl-6-oxo-1,6-dihydropyridin-3-yl)-3-ethyl-N,N-dimethyl-6-oxo-5,6-dihydropyrrolo[3,4-c]pyrazole-2(4H)-carboxamide], for which the IC50 turned out to be 270 nM in test [1] and 4100 nM in test [2]. Besides, the IC (total growth inhibition) in test [3] is 0.372 µM; in test [4] it was over 10 µM.
`Cc1nn(C(=O)N(C)C)c2c1[C@@H](c1ccc(Cl)cc1)N(c1cc(C)c3nnc(C)n3c1)C2=O` [Example 149, (R)-4-(4-chlorophenyl)-5-(3,8-dimethyl-[1,2,4]triazolo[4,3-a]pyridin-6-yl)-N,N,3-trimethyl-6-oxo-5,6-dihydropyrrolo[3,4-c]pyrazole-1(4H)-carboxamide]: the IC50 in test [1] was 30 nM; in test [2] it was 6900 nM. The IC (total growth inhibition) in test [3] is 0.138 µM; in test [4] it was over 10 µM.
On to `Cc1cc(N2C(=O)c3nn(C(=O)N(C)C)c(C)c3[C@H]2c2ccc(Cl)cc2)cn2c(C)nnc12` [Example 150, (R)-4-(4-chlorophenyl)-5-(3,8-dimethyl-[1,2,4]triazolo[4,3-a]pyridin-6-yl)-N,N,3-trimethyl-6-oxo-5,6-dihydropyrrolo[3,4-c]pyrazole-2(4H)-carboxamide], for which the IC50 in test [1] was found to be 110 nM; in test [2], 4600 nM. Moreover, the IC (total growth inhibition) is 0.211 µM in test [3] and over 10 µM in test [4].
For `Cc1nn(C2CNC2)c2c1C(c1ccc(Cl)cc1)N(c1cc(C)c3nnc(C)n3c1)C2=O` (stereo not drawn) [Example 151, 1-(azetidin-3-yl)-4-(4-chlorophenyl)-5-(3,8-dimethyl-[1,2,4]triazolo[4,3-a]pyridin-6-yl)-3-methyl-4,5-dihydropyrrolo[3,4-c]pyrazol-6(1H)-one] the same measures were 130 nM, over 37000 nM, 1.33 µM and over 10 µM.
The corresponding values for `Cc1cc(N2C(=O)c3nn(C4CNC4)c(C)c3C2c2ccc(Cl)cc2)cn2c(C)nnc12` (stereo not drawn) [Example 152, 2-(azetidin-3-yl)-4-(4-chlorophenyl)-5-(3,8-dimethyl-[1,2,4]triazolo[4,3-a]pyridin-6-yl)-3-methyl-4,5-dihydropyrrolo[3,4-c]pyrazol-6(2H)-one] are 78 nM, 3100 nM, 4 µM and over 10 µM.
For `CC(=O)N1CC(n2nc(C)c3c2C(=O)N(c2cc(C)c(=O)n(C)c2)C3c2ccc(Cl)cc2)C1` (stereo not drawn) [Example 153, 1-(1-acetylazetidin-3-yl)-4-(4-chlorophenyl)-5-(1,5-dimethyl-6-oxo-1,6-dihydropyridin-3-yl)-3-methyl-4,5-dihydropyrrolo[3,4-c]pyrazol-6(1H)-one] the same measures were 140 nM, 12000 nM, 0.515 µM and over 10 µM.
For the compound `CC(=O)N1CC(n2nc(C)c3c2C(=O)N(c2cc(C)c4nnc(C)n4c2)C3c2ccc(Cl)cc2)C1` (stereo not drawn) [Example 154, 1-(1-acetylazetidin-3-yl)-4-(4-chlorophenyl)-5-(3,8-dimethyl-[1,2,4]triazolo[4,3-a]pyridin-6-yl)-3-methyl-4,5-dihydropyrrolo[3,4-c]pyrazol-6(1H)-one], the IC50 was 91 nM in test [1] and over 37000 nM in test [2]. The IC (total growth inhibition) in test [3] was 0.538 µM; in test [4], over 10 µM.
For `CCOC(=O)N1CC(n2nc(C)c3c2C(=O)N(c2cc(C)c(=O)n(C)c2)C3c2ccc(Cl)cc2)C1` (stereo not drawn) [Example 155, Ethyl 3-(4-(4-chlorophenyl)-5-(1,5-dimethyl-6-oxo-1,6-dihydropyridin-3-yl)-3-methyl-6-oxo-5,6-dihydropyrrolo[3,4-c]pyrazol-1(4H)-yl)azetidine-1-carboxylate] the same measures were 87 nM, 11000 nM, 0.305 µM and over 10 µM.
For `CCOC(=O)N1CC(n2nc(C)c3c2C(=O)N(c2cc(C)c4nnc(C)n4c2)C3c2ccc(Cl)cc2)C1` (stereo not drawn) [Example 156, Ethyl 3-(4-(4-chlorophenyl)-5-(3,8-dimethyl-[1,2,4]triazolo[4,3-a]pyridin-6-yl)-3-methyl-6-oxo-5,6-dihydropyrrolo[3,4-c]pyrazol-1(4H)-yl)azetidine-1-carboxylate] the same measures were 49 nM, over 37000 nM, 0.143 µM and over 10 µM.
